Numbers after ± are expanded uncertainties.
Assay: osmotic coefficient (dimensionless); mn = molality of the nth substance listed, in mol/kg
Conditions: 323.15 K, Liquid, Vapor Pressure Osmometer

Molecule CCOS(=O)(=O)[O-].CC[n+]1ccccc1 [1-ethylpyridinium ethyl sulfate] + CC(C)O has an osmotic coefficient (m1 = 0.0578) of 0.948 ± 0.012, an osmotic coefficient (m1 = 0.1042) of 0.871 ± 0.013 and an osmotic coefficient (m1 = 0.2018) of 0.772 ± 0.014. It also gave an osmotic coefficient (m1 = 0.3112) of 0.695 ± 0.016, an osmotic coefficient (m1 = 0.3991) of 0.664 ± 0.017 and an osmotic coefficient (m1 = 0.5034) of 0.607 ± 0.018. For the same molecule, the osmotic coefficient (m1 = 0.6891) was 0.564 ± 0.02, the osmotic coefficient (m1 = 0.9837) was 0.533 ± 0.02 and the osmotic coefficient (m1 = 1.287) was 0.506 ± 0.021. For the same molecule, the osmotic coefficient (m1 = 1.684) was 0.49 ± 0.022, the osmotic coefficient (m1 = 2.075) was 0.47 ± 0.022 and the osmotic coefficient (m1 = 2.514) was 0.449 ± 0.023. For the same molecule, the osmotic coefficient (m1 = 2.915) was 0.432 ± 0.023 and the osmotic coefficient (m1 = 3.338) was 0.417 ± 0.024.
CCOS(=O)(=O)[O-].CC[n+]1ccccc1 [1-ethylpyridinium ethyl sulfate] + CCC(C)O gave an osmotic coefficient (m1 = 0.0597) of 0.82 ± 0.014, an osmotic coefficient (m1 = 0.0791) of 0.784 ± 0.014 and an osmotic coefficient (m1 = 0.1061) of 0.759 ± 0.015. The osmotic coefficient (m1 = 0.1993) was 0.665 ± 0.017, the osmotic coefficient (m1 = 0.313) was 0.575 ± 0.019 and the osmotic coefficient (m1 = 0.4056) was 0.515 ± 0.021. It also gave an osmotic coefficient (m1 = 0.5166) of 0.482 ± 0.022, an osmotic coefficient (m1 = 0.7016) of 0.452 ± 0.023 and an osmotic coefficient (m1 = 1.006) of 0.429 ± 0.023. It also gave an osmotic coefficient (m1 = 1.291) of 0.421 ± 0.024, an osmotic coefficient (m1 = 1.73) of 0.406 ± 0.024 and an osmotic coefficient (m1 = 2.104) of 0.392 ± 0.025. The osmotic coefficient (m1 = 2.512) was 0.383 ± 0.025, the osmotic coefficient (m1 = 2.915) was 0.378 ± 0.025 and the osmotic coefficient (m1 = 3.294) was 0.374 ± 0.025.
Work on CCOS(=O)(=O)[O-].CC[n+]1ccccc1 [1-ethylpyridinium ethyl sulfate] + CCCCCO yielded an osmotic coefficient (m1 = 0.0539) of 0.761 ± 0.015, an osmotic coefficient (m1 = 0.0802) of 0.679 ± 0.017 and an osmotic coefficient (m1 = 0.1082) of 0.605 ± 0.018. It also gave an osmotic coefficient (m1 = 0.2024) of 0.521 ± 0.021, an osmotic coefficient (m1 = 0.3151) of 0.465 ± 0.022 and an osmotic coefficient (m1 = 0.4053) of 0.435 ± 0.023. It also gave an osmotic coefficient (m1 = 0.511) of 0.416 ± 0.024, an osmotic coefficient (m1 = 0.7996) of 0.376 ± 0.025 and an osmotic coefficient (m1 = 1.105) of 0.359 ± 0.026. It also gave an osmotic coefficient (m1 = 1.414) of 0.355 ± 0.026, an osmotic coefficient (m1 = 1.719) of 0.347 ± 0.026 and an osmotic coefficient (m1 = 2.23) of 0.335 ± 0.026. The osmotic coefficient (m1 = 2.724) was 0.332 ± 0.026 and the osmotic coefficient (m1 = 3.206) was 0.33 ± 0.027.
Molecule CCOS(=O)(=O)[O-].CC[n+]1ccccc1 [1-ethylpyridinium ethyl sulfate] + CCCCO has an osmotic coefficient (m1 = 0.0564) of 0.758 ± 0.015, an osmotic coefficient (m1 = 0.0836) of 0.694 ± 0.016 and an osmotic coefficient (m1 = 0.1146) of 0.652 ± 0.017. It also gave an osmotic coefficient (m1 = 0.2084) of 0.578 ± 0.019, an osmotic coefficient (m1 = 0.2995) of 0.536 ± 0.02 and an osmotic coefficient (m1 = 0.3996) of 0.508 ± 0.021. The osmotic coefficient (m1 = 0.5015) was 0.495 ± 0.022, the osmotic coefficient (m1 = 0.7046) was 0.467 ± 0.022 and the osmotic coefficient (m1 = 0.9934) was 0.44 ± 0.023. The osmotic coefficient (m1 = 1.289) was 0.429 ± 0.023, the osmotic coefficient (m1 = 1.688) was 0.418 ± 0.024 and the osmotic coefficient (m1 = 2.094) was 0.402 ± 0.024. For the same molecule, the osmotic coefficient (m1 = 2.493) was 0.388 ± 0.025, the osmotic coefficient (m1 = 2.886) was 0.38 ± 0.025 and the osmotic coefficient (m1 = 3.301) was 0.374 ± 0.025.
Molecule CCOS(=O)(=O)[O-].CC[n+]1ccccc1 [1-ethylpyridinium ethyl sulfate] + CCCO has an osmotic coefficient (m1 = 0.0584) of 0.853 ± 0.013, an osmotic coefficient (m1 = 0.073) of 0.824 ± 0.014 and an osmotic coefficient (m1 = 0.1074) of 0.768 ± 0.015. The osmotic coefficient (m1 = 0.2108) was 0.684 ± 0.016, the osmotic coefficient (m1 = 0.3057) was 0.635 ± 0.018 and the osmotic coefficient (m1 = 0.4128) was 0.603 ± 0.018. For the same molecule, the osmotic coefficient (m1 = 0.5105) was 0.586 ± 0.019, the osmotic coefficient (m1 = 0.7918) was 0.561 ± 0.02 and the osmotic coefficient (m1 = 1.108) was 0.547 ± 0.02. For the same molecule, the osmotic coefficient (m1 = 1.347) was 0.54 ± 0.02, the osmotic coefficient (m1 = 1.697) was 0.528 ± 0.021 and the osmotic coefficient (m1 = 2.217) was 0.505 ± 0.021. The osmotic coefficient (m1 = 2.727) was 0.487 ± 0.022 and the osmotic coefficient (m1 = 3.22) was 0.474 ± 0.022.

Source: the NIST ThermoML archive (doi:10.1016/j.jct.2009.12.001)
